Measured values: article PMC8179393 (Chemical Science, 2021)

What was measured:
[1] = test system: OVCAR8 cells; assay: Cellular cisplatin sensitization assay; type: cell-based, human; conditions: OVCAR8, absence of cisplatin, peptide 50 μM or chloroquine 5 μM, 48 h
[2] = test system: HEY cells; assay: Cellular cisplatin sensitization assay; type: cell-based, human; conditions: absence of cisplatin, peptide 50 μM or chloroquine 5 μM, 48 h

CCN(CC)CCCC(C)Nc1ccnc2cc(Cl)ccc12 (centres unmarked) [chloroquine]
cell viability (MTT), in words [1]: significantly reduced cell viability
cell viability (MTT), in words [2]: significantly reduced cell viability
